# Molecular target: T1, human HSL (Homo sapiens, UniProt Q05469)
# T1 construct: overlapping PCR to generate a full length human HSL ORF with a 3′-His6 tag; His6 (C); made in house; host or cells: High 5 insect cells (baculovirus, pFast-BAC)
# T1 sequence (Q05469 1-1076): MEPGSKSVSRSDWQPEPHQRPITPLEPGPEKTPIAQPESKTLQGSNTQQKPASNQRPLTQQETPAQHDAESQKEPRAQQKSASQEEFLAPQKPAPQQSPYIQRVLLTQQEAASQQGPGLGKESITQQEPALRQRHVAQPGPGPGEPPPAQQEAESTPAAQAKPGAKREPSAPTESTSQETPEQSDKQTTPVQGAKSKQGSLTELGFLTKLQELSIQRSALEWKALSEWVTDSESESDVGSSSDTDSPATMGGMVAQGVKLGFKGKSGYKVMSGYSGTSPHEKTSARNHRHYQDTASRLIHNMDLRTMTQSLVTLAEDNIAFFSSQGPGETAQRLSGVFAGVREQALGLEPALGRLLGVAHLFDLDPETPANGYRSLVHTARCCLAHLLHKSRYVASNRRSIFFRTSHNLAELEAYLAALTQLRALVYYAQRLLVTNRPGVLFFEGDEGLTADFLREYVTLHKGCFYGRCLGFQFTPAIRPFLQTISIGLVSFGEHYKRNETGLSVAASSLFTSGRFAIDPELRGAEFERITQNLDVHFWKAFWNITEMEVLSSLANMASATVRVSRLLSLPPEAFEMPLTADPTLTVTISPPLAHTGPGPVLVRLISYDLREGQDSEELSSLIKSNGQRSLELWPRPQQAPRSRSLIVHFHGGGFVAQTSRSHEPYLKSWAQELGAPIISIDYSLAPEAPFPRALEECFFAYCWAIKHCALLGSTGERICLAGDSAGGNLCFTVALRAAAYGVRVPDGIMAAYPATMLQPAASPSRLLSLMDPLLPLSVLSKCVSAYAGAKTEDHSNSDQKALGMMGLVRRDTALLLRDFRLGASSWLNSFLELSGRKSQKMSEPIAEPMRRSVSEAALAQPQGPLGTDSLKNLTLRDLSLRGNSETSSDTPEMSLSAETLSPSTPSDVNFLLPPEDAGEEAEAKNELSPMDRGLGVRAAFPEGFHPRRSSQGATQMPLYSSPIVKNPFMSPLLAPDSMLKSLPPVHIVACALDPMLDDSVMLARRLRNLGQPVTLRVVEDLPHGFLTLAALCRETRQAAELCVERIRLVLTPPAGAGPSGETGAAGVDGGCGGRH
# Experiment: Human Hormone-Sensitive Lipase (HSL) Enzyme Inhibition Assay
# Type: biochemical
# Conditions: colorimetric assay, 2,3-dimercapto-1-propanol tributyrate (DMPT) substrate, 37° C. for 20 minutes, absorbance at 405 nm; read-out: HSL hum IC50
# In short: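 Colorimetric thioester hydrolysis: compounds in DMSO series mixed with DMPT (1.5 mM) in MOPS pH 7.2 with BSA, then baculovirus-expressed His6-tagged full-length human HSL added, 37° C, 20 min. DTNB plus detergents added, 15 min room temperature, absorbance at 405 nm.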
row,IC50 [nM],Structure (SMILES)
1,160,"O=C1N(c2ccc(OC(F)(F)F)cc2)CCC12CCN(S(=O)(=O)c1ncccn1)CC2 [Example 202, 8-(Pyrimidine-2-sulfonyl)-2-(4-trifluoromethoxy-phenyl)-2,8-diaza-spiro[4.5]decan-1-one]"
2,250,"CC(C)CS(=O)(=O)N1CCC2(CCN(c3ccc(OS(C)(=O)=O)cc3)C2=O)CC1 [Example 62, Methanesulfonic acid 4-[8-(2-methyl-propane-1-sulfonyl)-1-oxo-2,8-diaza-spiro[4.5]dec-2-yl]-phenyl ester]"
3,110,"CN(C(=O)N1CCC2(CC1)CCN(c1ccc(OC(F)(F)F)cc1)C2=O)c1ccc(Cl)c(Cl)c1 [Example 301, 1-Oxo-2-(4-trifluoromethoxy-phenyl)-2,8-diaza-spiro[4.5]decane-8-carboxylic acid (3,4-dichloro-phenyl)-methyl-amide]"
4,160,"CCN(Cc1ccccc1F)C(=O)N1CCC2(CC1)CCN(c1ccc(OC(F)(F)F)cc1)C2=O [Example 306, 1-Oxo-2-(4-trifluoromethoxy-phenyl)-2,8-diaza-spiro[4.5]decane-8-carboxylic acid ethyl-(2-fluoro-benzyl)-amide]"
5,80,"Cc1nc(Cc2ccc(N3CCC4(CCN(S(=O)(=O)c5ccccc5Cl)CC4)C3=O)cc2)no1 [Example 136, 8-(2-Chloro-benzenesulfonyl)-2-[4-(5-methyl-[1,2,4]oxadiazol-3-ylmethyl)-phenyl]-2,8-diaza-spiro[4.5]decan-1-one]"
6,80,"O=C1N(c2ccc(CC(F)(F)F)cc2)CCC12CCN(S(=O)(=O)c1ccccc1C(F)(F)F)CC2 [Example 73, 2-[4-(2,2,2-Trifluoro-ethyl)-phenyl]-8-(2-trifluoromethyl-benzenesulfonyl)-2,8-diaza-spiro[4.5]decan-1-one]"
7,20,"CS(=O)(=O)Oc1ccc(N2CCC3(CCN(S(=O)(=O)c4ccccc4OC(F)(F)F)CC3)C2=O)cc1 [Example 56, Methanesulfonic acid 4-[1-oxo-8-(2-trifluoromethoxy-benzenesulfonyl)-2,8-diaza-spiro[4.5]dec-2-yl]-phenyl ester]"
8,60,"O=C(COc1ccccc1)N1CCC2(CC1)CCN(c1ccc(OC(F)(F)F)cc1)C2=O [Example 221, 8-(2-Phenoxy-acetyl)-2-(4-trifluoromethoxy-phenyl)-2,8-diaza-spiro[4.5]decan-1-one]"
9,140,"CCCc1ccc(N2CCC3(CCN(S(=O)(=O)c4ccccc4S(C)(=O)=O)CC3)C2=O)cc1 [Example 57, 8-(2-Methanesulfonyl-benzenesulfonyl)-2-(4-propyl-phenyl)-2,8-diaza-spiro[4.5]decan-1-one]"
10,320,"O=C(CCl)N1CCC2(CC1)CCN(c1ccc(OC(F)(F)F)cc1)C2=O [Example 225, 8-(2-Chloro-acetyl)-2-(4-trifluoromethoxy-phenyl)-2,8-diaza-spiro[4.5]decan-1-one]"
11,40,"O=C1N(c2ccc(C(O)(C(F)(F)F)C(F)(F)F)cc2)CCC12CCN(S(=O)(=O)c1ccccc1Cl)CC2 [Example 157, 8-(2-Chloro-benzenesulfonyl)-2-[4-(2,2,2-trifluoro-1-hydroxy-1-trifluoromethyl-ethyl)-phenyl]-2,8-diaza-spiro[4.5]decan-1-one]"
12,60,"CCS(=O)(=O)c1ccc(N2CCC3(CCN(S(=O)(=O)c4ccccc4Cl)CC3)C2=O)cc1 [Example 156, 8-(2-Chloro-benzenesulfonyl)-2-(4-ethanesulfonyl-phenyl)-2,8-diaza-spiro[4.5]decan-1-one]"
13,310,"CCc1ccc(N2CCC3(CCN(S(=O)(=O)c4ccc(C(F)(F)F)cc4Cl)CC3)C2=O)cc1 [Example 69, 8-(2-Chloro-4-trifluoromethyl-benzenesulfonyl)-2-(4-ethyl-phenyl)-2,8-diaza-spiro[4.5]decan-1-one]"
14,90,"CCN(CCOC)S(=O)(=O)N1CCC2(CCN(c3ccc(OC(F)(F)F)cc3)C2=O)CC1 [Example 294, 1-Oxo-2-(4-trifluoromethoxy-phenyl)-2,8-diaza-spiro[4.5]decane-8-sulfonic acid ethyl-(2-methoxy-ethyl)-amide]"
15,550,"CC(O)(c1ccc(N2CCC3(CCN(S(=O)(=O)C4CC4)CC3)C2=O)cc1)C(F)(F)F (stereo not shown) [Example 171, 8-(Cyclopropylsulfonyl)-2-(4-(1,1,1-trifluoro-2-hydroxypropan-2-yl)phenyl)-2,8-diazaspiro[4.5]decan-1-one]"
16,60,"CCC(C)c1ccc(N2CCC3(CCN(S(=O)(=O)c4ccc(C)s4)CC3)C2=O)cc1 (stereo not shown) [Example 45, 2-(4-sec-Butyl-phenyl)-8-(5-methyl-thiophene-2-sulfonyl)-2,8-diaza-spiro[4.5]decan-1-one]"
17,110,"CC(C)(C)CS(=O)(=O)N1CCC2(CCN(c3ccc(OS(C)(=O)=O)cc3)C2=O)CC1 [Example 53, Methanesulfonic acid 4-[8-(2,2-dimethyl-propane-1-sulfonyl)-1-oxo-2,8-diaza-spiro[4.5]dec-2-yl]-phenyl ester]"
18,120,"Cc1noc(C)c1S(=O)(=O)N1CCC2(CCN(c3ccc(C(O)C(F)(F)F)cc3)C2=O)CC1 (racemic) [Example 162, (rac)-8-(3,5-Dimethyl-isoxazole-4-sulfonyl)-2-[4-(2,2,2-trifluoro-1-hydroxy-ethyl)-phenyl]-2,8-diaza-spiro[4.5]decan-1-one]"
19,150,"O=C(CCC1CC1)N1CCC2(CC1)CCN(c1ccc(OC(F)(F)F)cc1)C2=O [Example 13, 8-(3-Cyclopropyl-propionyl)-2-(4-trifluoromethoxy-phenyl)-2,8-diaza-spiro[4.5]decan-1-one]"
20,80,"O=C(COCc1ccccc1)N1CCC2(CC1)CCN(c1ccc(OC(F)(F)F)cc1)C2=O [Example 220, 8-(2-Benzyloxy-acetyl)-2-(4-trifluoromethoxy-phenyl)-2,8-diaza-spiro[4.5]decan-1-one]"
21,50,"CCOC(=O)Cc1ccc(N2CCC3(CCN(S(=O)(=O)c4ccccc4Cl)CC3)C2=O)cc1 [Example 134, {4-[8-(2-Chloro-benzenesulfonyl)-1-oxo-2,8-diaza-spiro[4.5]dec-2-yl]-phenyl}-acetic acid ethyl ester]"
22,170,"CN(C(=O)N1CCC2(CC1)CCN(c1ccc(OC(F)(F)F)cc1)C2=O)c1ccc(C(F)(F)F)cc1 [Example 299, 1-Oxo-2-(4-trifluoromethoxy-phenyl)-2,8-diaza-spiro[4.5]decane-8-carboxylic acid methyl-(4-trifluoromethyl-phenyl)-amide]"
23,210,"CCc1ccc(N2CCC3(CCN(S(=O)(=O)c4ccccc4S(C)(=O)=O)CC3)C2=O)cc1 [Example 52, 2-(4-Ethyl-phenyl)-8-(2-methanesulfonyl-benzenesulfonyl)-2,8-diaza-spiro[4.5]decan-1-one]"
24,150,"CC(CNS(=O)(=O)N1CCC2(CCN(c3ccc(OC(F)(F)F)cc3)C2=O)CC1)c1ccccc1 (stereo not shown) [Example 288, 1-Oxo-2-(4-trifluoromethoxy-phenyl)-2,8-diaza-spiro[4.5]decane-8-sulfonic acid (2-phenyl-propyl)-amide]"
25,100,"CC(C)(C)c1ccc(CCN2CCC3(CCN(S(=O)(=O)c4ccccc4Cl)CC3)C2=O)cc1 [Example 238, 2-[2-(4-tert-Butyl-phenyl)-ethyl]-8-(2-chloro-benzenesulfonyl)-2,8-diaza-spiro[4.5]decan-1-one]"
26,40,"CCc1ccc(CCN2CCC3(CCN(S(=O)(=O)c4ccccc4Cl)CC3)C2=O)cc1 [Example 237, 8-(2-Chloro-benzenesulfonyl)-2-[2-(4-ethyl-phenyl)-ethyl]-2,8-diaza-spiro[4.5]decan-1-one]"
27,180,"O=C1N(c2ccc(C3CC3)cc2)CCC12CCN(S(=O)(=O)c1ccc(C(F)(F)F)cc1Cl)CC2 [Example 77, 8-(2-Chloro-4-trifluoromethyl-benzenesulfonyl)-2-(4-cyclopropyl-phenyl)-2,8-diaza-spiro[4.5]decan-1-one]"

row,Structure (SMILES),IC50 [nM]
1,"CCCCOc1ccc(N2CCC3(CCN(S(=O)(=O)c4ccccc4OC(F)(F)F)CC3)C2=O)cc1 [Example 88, 2-(4-Butoxy-phenyl)-8-(2-trifluoromethoxy-benzenesulfonyl)-2,8-diaza-spiro[4.5]decan-1-one]",50

# Reference: patent publication US8329904B2, “Azacyclic derivatives” (Hoffmann-La Roche Inc., priority 2009, dated 2012)
